Results on 2 molecules are retold here after EP3495372B1 (priority 2017, dated 2019).

≈ marks a conversion by molar mass, not a printed value. Like-named read-outs stand apart in the source and are kept apart here.

In series [1] the test system is peripheral human whole blood (PHWB) cells. Put plainly: Cytotoxicity assay (MTT and LDH) on blood cells. The following applies: 0.1 to 100 µM, 24 h, MTT and LDH assays. A general note: Formazan colour is commonly taken as a measure of viable cells.
Method: LDH assay: For LDH assay application, LDH cytotoxicity assay kit (Cayman Chemical Company®, Ann Arbor, MI, USA) was used according to the manufacturer's recommendations. The cells were transferred to 48-well plates and different concentrations of drugs were applied for 24 h. After that, 100 µL supernatant and 100 µL of reaction mixture were transferred to a fresh 48-well plate and incubated for 30 min at room temperature. Finally, the absorbance of the cultures was analyzed at 490 nm using a microplate reader as reported by Turkez H. Togar B, Di Stefano A, Taspinar N, Sozio P. Protective effects of cyclosativene on H2O2-induced injury in cultered rat primary cerebral cortx cells. […]
MTT assay: according to the manufacturer's instructions (Cayman Chemical Company®, Ann Arbor, MI, USA), 3-(4,5-Dimethylthiazol-2-yl)-2,5-diphenyltetrazolium bromide (MTT) solution was applied to cell cultures. As summary, MTT was added and incubated in the cell cultures for 3 h and after incubation dimethyl sulfoxide (DMSO) was used to solve formazan crystals, and a plate reader was used to analyse cultures at 570 nm wavelength (Togar B, Turkez H, Hacimuftuoglu A, Tatar A, Geyikoglu F. Guaiazulene biochemical activity and cytotoxic and genotoxic effects on rat neuron and N2a neuroblastom cells. J. Intercult. Ethnopharmacol. 2015; 4:29-33). […]
The test system of series [2] is differentiated SH-SY5Y human neuroblastoma cells. Kind of series: MTT assay, neuroprotective effects against Aβ1-42 cytotoxicity. The format is cell-based. The following applies: 24 h, read-out: increase in the cell viability (MTT assay). The method, then:
Cell cultures and differentiation: SH-SY5Y cell line were growth in DMEM:F12 (1:1) media including 10% FBS and 1% penicillin/streptomycin at 37 °C and 5% CO2 until cells reach confluence. Then, cells harvested via using trypsin/EDTA solution and transferred to 48 well plates. For differentiation, media were changed to supplemented media with 10 µg/mL retinoic acid and incubated for 5 days. Finally, media were changed into serum free media supplementing with both 10 µM retinoic acid and 25 ng/mL BDNF. Differentiated cells were determined under invert microscope and the cells were used within 10 days (Encinas M, Iglesias M, Liu Y, Wang H, Muhaisen A, Ceña V, Gallego C, Comella JX. Sequential treatment of SH-SY5Y cells with retinoic acid and brain-derived neurotrophic factor gives rise to fully differentiated, neurotrophic factor-dependent, human neuron-like cells. J. Neurochem. 2002; 75:991-1003 e Cheung YT, Lau WKW, Yu MS, Lai CSW, Yeung SC, So KF, Chang RCC. Effects of all-trans-retinoic acid on human SH-SY5Y neuroblastoma as in vitro model in neurotoxicity research. Neurotoxicol. 2009; 30:127-135).
(§1) Control cells (n = 6) were cultured under normal conditions. 1% Triton X, ascorbic acid (10 µM) and hydrogen peroxide (H2O2, 25 µM) were used as positive controls for cell viability, TAC and TOS analysis, respectively.
The cultures without BLA, MEM, or LA were studied as negative control group. 1% Triton-X was added to the culture media to provide negative control group. MTT reduction and LDH release observed after 24 h of Aβ1-42-exposure at 20 µM.

Series [3] relates to Escherichia coli ATCC 25922. Put plainly: Antimicrobial activity. As to conditions: ATCC25922, E. coli ATCC 25922. The format is cell-based.
Series [4] has as its system Pseudomonas aeruginosa ATCC 27853. Put plainly: Antimicrobial activity. The format is cell-based. As to conditions: ATCC27853, P. aeruginosa ATCC 27853.
The subject of series [5] is differentiated SH-SY5Y cells. Kind of series: TAC and TOS analysis in cellular model of Alzheimer's disease. The format is cell-based, human. The following applies: co-treatment with Aβ1-42. The method, then:
TAC and TOS analysis: the automated TAC and TOS assays were carried out by commercially available kits (Rel Assay^(R) Diagnostics, Gaziantep, Turkey) on samples from the cultures.
as §1
Figure 5 and 6 show the effects of BLA and MEM treatments on TAC and TOS levels in cellular model of Alzheimer's disease, respectively.

Series [6] deals with T1, acetylcholinesterase (AChE) (Homo sapiens, UniProt P22303).
T1 construct: endogenous in cells
T1 sequence (P22303 32-614): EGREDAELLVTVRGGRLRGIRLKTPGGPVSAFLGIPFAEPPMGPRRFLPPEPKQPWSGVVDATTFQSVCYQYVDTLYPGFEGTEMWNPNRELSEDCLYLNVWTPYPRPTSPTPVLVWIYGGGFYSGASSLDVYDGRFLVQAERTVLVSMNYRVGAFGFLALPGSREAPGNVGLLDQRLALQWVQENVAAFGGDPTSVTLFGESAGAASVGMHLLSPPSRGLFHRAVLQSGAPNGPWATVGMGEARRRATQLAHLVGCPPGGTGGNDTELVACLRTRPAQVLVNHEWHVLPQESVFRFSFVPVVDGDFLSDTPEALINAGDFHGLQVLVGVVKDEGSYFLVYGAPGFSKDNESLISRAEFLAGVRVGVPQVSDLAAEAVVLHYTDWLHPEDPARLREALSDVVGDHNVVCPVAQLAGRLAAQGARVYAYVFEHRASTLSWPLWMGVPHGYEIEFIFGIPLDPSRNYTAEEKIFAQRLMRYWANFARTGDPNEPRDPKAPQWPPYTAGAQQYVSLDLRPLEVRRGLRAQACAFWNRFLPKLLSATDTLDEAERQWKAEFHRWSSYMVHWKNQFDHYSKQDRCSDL
Kind of series: AChE activity in cellular model of Alzheimer's disease. Format: cell-based. The following applies: with 20 µM Aβ1-42, 24 h. The method, then: Determination of AChE activity: the activity of AChE within the cellular Alzheimer Disease's model was measured by the Acetylcholinesterase Assay Kit (Colorimetric) from Abcam^(R) (Cambridge, MA, USA) according to the manufacturer's recommended protocol.
AChE activity was evaluated in differentiated SH-SY5Y cells treated with BLA, LA, MEM (25 and 50 µM) or media alone for 24 h.

The subject of series [7] is cultured human lymphocytes. Kind of series: SCE assay (genotoxicity). The format is cell-based. The method, then:
All volunteers have signed informed consent.
SCE assay: to provide successive visualization of SCEs, 5-bromo-2-deoxyuridine was added at culture cells. Exactly 70 h and 30 min after beginning of the incubations, demecolcine ([…]) was added to the cultures. After hypotonic treatment (0.075 M KCl), followed by three repetitive cycles of fixation in methanol/acetic acid solution (3:1, v/v), centrifugation and re-suspension, the cell suspension was dropped onto chilled, grease-free microscopic slides, air-dried, aged for three days, and then differentially stained for the inspection of the SCE rate according to the fluorescence plus Giemsa (FPG) procedure. For each treatment condition, well-spread twenty-five second division metaphases containing 42-46 chromosomes per cell were scored and the values obtained were calculated as SCEs per cell.
The frequencies of sister chromatid exchanges (SCEs) with increasing BLA concentrations were investigated in cultured human lymphocytes.

For series [8], the system named is SHSY-5Y human neuroblastoma cell line. Kind of series: Antitumor activity, MTT and LDH assays. The following applies: dose-dependent. Format: cell-based. The method, then:
Cytotechnol. 2015; 67:299-309.
Antitumor activity of BLA and MEM was tested on SHSY-5Y human neuroblastoma cell line using MTT and LDH assays. Cells were grown to near-confluency before treatment. Growth of the cell line was inhibited by both drug application in a dose-dependent manner.

The test system of series [9] is Staphylococcus aureus ATCC 25923. Kind of series: Antimicrobial activity. The format is cell-based. The following applies: ATCC25923, S. aureus ATCC 25923.
Series [10] relates to Enterococcus faecalis ATCC 29212. Put plainly: Antimicrobial activity. As to conditions: ATCC29212, E. faecalis ATCC 29212. Format: cell-based.
Series [11] relates to Candida albicans ATCC 90028. Kind of series: Antimicrobial activity. Format: cell-based. The following applies: ATCC90028, C. albicans ATCC 90028.

`CC1(C)C2CC3OB(CNC(=O)CCCC[C@H]4CCSS4)O[C@]3(C)C1C2` (stereo partly drawn) [BLA, 5-((S)-1,2-dithiolan-3-yl)-N-(((3aR)-3a,5,5-trimethylhexahydro-4,6-methanobenzo[d][1,3,2]dioxaborol-2-yl)methyl)pentanamide]: the “changes in cell viability” value in series [1] is “did not show any significant changes in cell viability”. Moreover, the viability at 25 µM in series [2] is 25.1%. Besides, in series [2], the viability at 50 µM was determined as 29.9%. For the same molecule, in series [2], the viability at 100 µM was determined as 32.9%. Further, the MIC in series [3] was found to be 128 µg/mL (≈ 322 µM); in series [4], 256 µg/mL (≈ 644 µM); in series [9] it was 256 µg/mL (≈ 644 µM); in series [10], 256 µg/mL (≈ 644 µM); in series [11] it was 128 µg/mL (≈ 322 µM). The “Aβ1-42-induced decreases of TAC and increases of TOS levels” value in series [5] was “modulated”. In addition, the “reduced Aβ-induced AChE activity” value is 18.77% in [6] (25 µM) and 22.96% in [6] (50 µM). For the same molecule, in series [7] (versus control group, P > 0.05), the “frequencies of sister chromatid exchanges (SCEs)” value was “not significant differences”. Further, the “antitumor effects (growth inhibition)” value in series [8] was “moderate antitumor effects”.
Consider `O=C(O)CCCCC1CCSS1` (stereo not shown) [LA, 1,2-dithiolane-3-pentanoic acid], for which, in series [2], the viability at 25 µM was 14.8%, the viability at 50 µM turned out to be 19% and the viability at 100 µM turned out to be 20.7%. Besides, the “Aβ1-42-induced decreases of TAC and increases of TOS levels” value in series [5] is “modulated”. In [7], the “frequencies of sister chromatid exchanges (SCEs)” value is listed as “not higher than the control group”.

By viability is commonly meant the share of living cells, or the viability signal relative to a control. The term MIC denotes the smallest concentration in the dilution series that meets the test's criterion for growth inhibition. Low readings indicate a more susceptible organism, high ones a less susceptible organism.
